Legend:
human PBMC = experiment: IFN-β production in human PBMC supernatant; format: cell-based; conditions: FIG. 12A
Protocol: We compared the activity of co-administered exosomes and free CDN with exoSTING in in vitro PBMC assays.
These populations of exosomes were next examined for their capacity activate STING pathway as measured by IFN-β production. […] These CDN-loaded exosomes were assayed in vitro for their potential to induce IFN-β production in PBMC cultures. EC50 values and maximal IFN-β cytokine production (Cmax) were assessed from multiple donors.

[1] = Pharmacokinetics of CDN in injected B16F10 tumors, LC-MS/MS; format: in vivo, C57BL/6 mice; conditions: injected tumor
Protocol: (§1) C57BL/6 mice were implanted subcutaneously with 1×10^6 B16F10 cells. FIGS. 14A and […] are graphical representations showing the concentration of CDN2 in tumors (FIG. 14A) and plasma (FIG. 14B) as measured by LC-MS/MS at 5 minutes, 30 minutes, 2 hours, 6 hours, 24 hours, and 48 hours after single IT injection (n=3 per group at each time point) in C57BL/6 mice implanted subcutaneously with 1×10^6 B16F10 cells. FIGS. 14C-14E are graphs showing the relative expression of IFN-β (FIG. 14C), CXCL9 (FIG. 14D), and CXCL10 (FIG. 14E) genes as measured by RT-qPCR, normalized against the housekeeping gene RPS13. FIGS. 14F-14H are graphs showing serum levels of IFN-β (FIG. 14F), TNF-α (FIG. 14G), and IL-6 (FIG. 14H) (n=5 per group). Data are presented as means±s.e.m. *, P<0.05; **, P<0.01; ***, P<0.001; ****, P<0.0001 by one-way ANOVA with Tukey's multiple comparison test.
(§2) A major limitation of IT administration of free CDN is its rapid dissemination into the systemic circulation (see Sivick et al., Cell Rep. 25, 3074-3085.e5 (2018)). […] This reduces the effectiveness of the CDN to elicit a productive immune response in the tumor resulting in higher doses of free CDN required for efficacy. In B16F10 tumors after injection of exoSTING or free CDN, we measured the amount of CDN in tumors and blood over time.

[2] = system: T cells stimulated by anti-CD3 and anti-CD28; experiment: IFN-β production in T cells stimulated by anti-CD3 and anti-CD28; format: cell-based, human; conditions: FIG. 17F
Source text: (§3) FIGS. 17F and 17G show representative dose-response curves of IFN-β production (FIG. 17F) and cytotoxicity (FIG. 17G) in stimulated T cells after treating with free CDN2 and exoCDN2. T cells were purified from human PBMCs and stimulated with anti-CD3/anti-CD28.
(§4) Next, we characterized the effect of exoSTING for free CDN on naïve or TCR stimulated T cells. We purified T cells and treated them with a dose titration of exoSTING or free CDN and compared IFNβ production in the presence or absence of TCR stimulation. […] We next characterized induction of T cell death using Cytotox dye staining following exoSTING or free CDN2 treatment in T cells stimulated with anti-CD3 and anti-CD28. Following free CDN2 treatment, we observed a dose dependent increase in T cell death (up to ~20% of T cells) as measured by Cytotox dye staining (FIG. 17G). […] Importantly, exoSTING preserves the viability of TCR stimulated T cells.

[3] = system: CD8+ T cells and XCR1+ DCs in B16F10 tumors; experiment: Flow cytometry of B16F10 tumors after two IT injections; format: in vivo, mice; conditions: 20 μg, FIG. 15D
Protocol: FIG. 15 is a graphical representation of IFN-β positive area. FIG. 15C is a graphical representation of CD8 positive cells. FIGS. 15D-15E are graphical representations of the percentage of CD8 T cells in live CD45^+ cells in tumors (FIG. 15D) and CD86 expression on dendritic cells (FIG. 15E) as measured by flow cytometry after 2 doses of PBS, CDN2 (20 μg), and exoCDN2 (0.2 μg) into B16F10 tumors (n=5 per group). *, P<0.05; **, P<0.01; ****, P<0.0001 by one-way ANOVA with Tukey's multiple comparison test; n.s., non-significant.
We also assessed CD8^+ T cell and XCR1^+ DC activation after two IT injections of exoSTING and free CDN2 by flow cytometry. […] This increase in CD8^+ T cell is consistent with the increased CXCL9 and CXCL10 production following exoSTING treatment (FIGS. 14D and 14E). […] The enhanced activation of this DC subset seen with exoSTING but to a lesser degree with free CDN, is consistent with the observed superiority of anti-tumor activity of exoSTING in the B16F10 model (FIGS. 12 and 13).

[4] = system: T cells stimulated with anti-CD3 and anti-CD28; format: cell-based, human; conditions: FIG. 17G
Source text: as §3, §4

naïve T cells = experiment: IFN-β production in naïve T cells; format: cell-based, human
Source text: as §4

B16F10 tumors = experiment: Histology of injected B16F10 tumors (H&E, IFN-β mRNA, CD8, F4/80); format: in vivo; conditions: free CDN2 20 μg, exoSTING 0.1 μg, 4 and 24 hours after two injections, FIG. 15A
Protocol: In order to distinguish the immune stimulatory versus immune ablative mechanisms of action between free CDN2 and exoSTING, we compared the effects of efficacious doses of free CDN2 (20 μg) or exoSTING (0.1 μg) after IT dosing in a therapeutic setting with the B16F10 model.

B16F10 tumor = experiment: B16F10 subcutaneous tumor growth after intratumoral injection; format: in vivo, C57BL/6 mice; conditions: 0.1 μg CDN2, IT, FIG. 12F
Protocol: C57BL/6 mice were implanted subcutaneously with 1×10^6 B16F10 cell on right flank of mice. Additional implantation of tumors is specified in each legend. When tumor volumes reached 50-100 mm^3, testing agents were injected intratumorally 3 times with 3 days interval. Red arrows in the graph indicate IT injection days. Tumor growth were measured over time. n=5 per group. […] RLU: Relative Luminescent Unit. ****, P<0.0001 by two-way ANOVA with Tukey's multiple comparison test for tumor growth studies. Data are presented as means±s.e.m. (FIGS. 12D-12F).
Data are presented as means±s.e.m. RLU: Relative Luminescent Unit. […]
We have previously identified and characterized exosome-specific surface glycoproteins using unbiased proteomic analysis and identified the immunoglobulin super family member PTGFRN as a protein that is enriched on human exosomes and contains nine predicted N-linked glycosylation sites (see Dooley et al., Cancer Res. 79(13 Suppl), Abstract nr 2150 (2019), which is incorporated by reference herein in its entirety). […] These populations of exosomes were next examined for their capacity activate STING pathway as measured by IFN-β production. […] EC50 values and maximal IFN-β cytokine production (Cmax) were assessed from multiple donors. […]

[5] = CDN in plasma / systemic circulation after IT injection, LC-MS/MS; format: in vivo, C57BL/6 mice
Protocol: as §1, §2
Further, free CDN2 is cleared rapidly in the systemic circulation (106 mL/hr).

[6] = system: global gene expression in B16F10 tumors; experiment: RNA sequencing of B16F10 tumors after 1 or 2 IT injections; format: in vivo, mice; conditions: after 2 doses, exoSTING 0.1 μg, free CDN2 20 μg, FIG. 16E
Protocol: FIGS. 16A-16C are box plots showing the relative expression of IFN-β (FIG. 16A), CD274 (FIG. 16B), and CXCL9 (FIG. 16C) as measured by NanoString in RNA samples collected four hours after IT injection of PBS, CDN2 (0.1, 20, or 100 μg), and exoCDN2 (0.001, 0.01, or 0.1 μg) into B16F10 tumors. Data are presented as means±s.e.m. *, P<0.05; **, P<0.01; ***, P<0.001; ****, P<0.0001 by one-way ANOVA with Tukey's multiple comparison test. […] All genes were compared to PBS treatment. […] Adjusted P values are indicated.
To further characterize the immune pathway activation, we evaluated the global gene expression changes after 1 or 2 IT injections of efficacious doses of exoSTING (0.1 μg) and free CDN2 (20 μg) by RNA sequencing. All samples were compared to PBS treatment. […] Tcf7 (which encodes TCF1) is a key transcription factor expressed in the stem-like progenitor CD8^+ T cells (Siddiqui et al., Immunity. 50, 195-211.e10 (2019)). This cell subset is required for response to checkpoint inhibitor therapies. (Siddiqui, 2019). […] This loss may underlie the lack of immunological memory response to free CDN.
In contrast, high doses of free CDN decrease the expression of these key genes as well as reducing the expression of APC markers.

splenocytes = experiment: Tumor antigen-specific IFN-γ production in splenocytes (Trp2, GP100 & Tyr peptides); format: in vivo, mice; conditions: two IT doses, day 4, FIG. 13G
Protocol: FIG. 13B provides representative H&E stained images from PBS, CDN2 (20 μg), and exoCDN2 (0.12 μg) treated samples. FIG. 13C is a table showing the number of complete responders by histopathological analysis. […] FIG. 13F is a graphical representation of tumor growth after CD8 T cell depletion in B16F10 tumor bearing mice following administration of the IgG (10 mg/kg) or anti-CD8 antibody (10 mg/kg) intraperitoneally, one day before IT injection (n=5 per group). Blue arrows indicate intraperitoneal injection days (FIG. 13F). […] Data are presented as means±s.e.m.
We next evaluated the capacity of exoSTING to induce systemic, antigen specific T cell responses in the B16F10 tumor model. Several tumor-associated CD8-dependent antigens have been identified as dominant antigens from B16F10 tumor cells (Kreiter et al., Nature 520, 692-696 (2015), which is incorporated by reference herein in its entirety).

| Compound | EC50 (human PBMC) [µM] | AUC ([1]; 0.3 μg single IT) [ng·h/mL] | CL ([1]; 0.3 μg single IT) [mL/h] | Cmax ([1]; 0.3 μg single IT) | T1/2 ([1]; 0.3 μg single IT) [h] | AUC ([1]; 30 μg single IT) | CL ([1]; 30 μg single IT) [mL/h] | Cmax ([1]; 30 μg single IT) | T1/2 ([1]; 30 μg single IT) [h] | EC50 [2] [µM] | number of viable CD8+ T cells compared PBS control [3] | T cell death by Cytotox dye staining (maximum, dose dependent) [4] | IFN-β production (naïve T cells) | tissue damage by H&E staining (B16F10 tumors) | tumor growth (B16F10 tumor) | detection in the plasma at the 30-minute timepoint ([5]; 30 μg IT) | clearance in the systemic circulation ([5]; free CDN2 after IT injection (30 μg)) [mL/h] | Tcf7 levels [6] | increase in the number of IFN-γ positive spots compared to PBS control (splenocytes; 0.2 μg) | IFN-γ positive spots compared to PBS control (splenocytes; 20 μg) |
| --- | --- | --- | --- | --- | --- | --- | --- | --- | --- | --- | --- | --- | --- | --- | --- | --- | --- | --- | --- | --- |
| Nc1ncnc2c1ncn2[C@@H]1O[C@@H]2COP(O)(=S)O[C@H]3[C@@H](F)[C@H](n4cnc5c(=O)[nH]cnc54)O[C@@H]3COP(O)(=S)O[C@H]2[C@H]1F (some centres unmarked) [CDN2, cAIM(PS)2 Difluor (Rp/Sp)] | ~9.7 | 799 | 0.375 | 1,240 ng/mL | 0.620 | 97,300 ng · hr/mL | 0.308 | 13,800 ng/mL | 2.05 | ~8.2 | significantly decreased | ~ 20 % of T cells | no IFN-β production was observed | significant evidence of tissue damage in the skin and tumor cell death | Neither free CDN2 (0.1 μg) or co-administered PTGFRN^+/+ exosomes mixed with free CDN2 (0.1 μg) resulted in measurable tumor growth inhibition | detectable in the plasma | 106 | decrease in Tcf7 levels | – | – |
| Nc1ncnc2c1ncn2[C@@H]1O[C@@H]2COP(O)(=S)O[C@@H]3C(O)[C@@H](COP(O)(=S)O[C@H]2[C@H]1O)O[C@H]3n1cnc2c(N)ncnc21 (some centres unmarked) [CDN1, ML RR-S2] | – | – | – | – | – | – | – | – | – | – | – | – | – | – | – | – | – | – | failed to induce IFN-γ positive spots | failed to induce IFN-γ positive spots |

From patent US12728098B2, “Methods of producing extracellular vesicles” (LONZA SALES AG, priority 2019, dated 2026)
